Test results published in ChEMBL document CHEMBL3108671, “Differential Induction of Cytoplasmic Vacuolization and Methuosis by Novel 2-Indolyl-Substituted Pyridinylpropenones” (2014).
Activity calls are given as the source filed them. The rule behind the calls is not given here.

Legend:
[1] = tested on: U-251; assay: Induction of methuosis in human U251 cells assessed as detachment of vacuolated cells at 10 uM after 2 days by phase-contrast microscopic analysis; format: functional, cell-based
[2] = tested on: U-251; assay: Induction of methuosis in human U251 cells assessed as heavily vacuolated cells at 10 uM after 1 day by phase-contrast microscopic analysis; format: functional, cell-based
[3] = tested on: U-251; assay: Growth inhibition of human U251 cells preincubated for 24 hrs followed by compound-washout measured at 48 hrs by sulforhodamine assay; format: functional
[4] = tested on: U-251; assay: Induction of methuosis in human U251 cells assessed as decrease in cell proliferation at 10 uM after 2 days by phase-contrast microscopic analysis; format: functional, cell-based
[5] = tested on: U-251; assay: Induction of methuosis in human U251 cells assessed as loss of membrane integrity at 10 uM after 2 days by phase-contrast microscopic analysis; format: functional, cell-based
[6] = tested on: U-251; assay: Induction of methuosis in human U251 cells assessed as sparse cells at 10 uM after 1 day by phase-contrast microscopic analysis; format: functional, cell-based

| SMILES | GI50 [3] [µM] | Activity [1] | Activity [2] | Activity [4] | Activity [5] | Activity [6] |
| --- | --- | --- | --- | --- | --- | --- |
| COc1ccc2[nH]c(C)c(/C=C/C(=O)c3cccnc3)c2c1 | 16.9 | – | inactive | inactive | – | – |
| COc1ccc2[nH]c(C(C)C)c(/C=C/C(=O)c3ccncc3)c2c1 | > 20 | inactive | Active | inactive | – | – |
| COc1ccc2[nH]cc(/C=C/C(=O)c3ccncc3)c2c1 | 18.6 | inactive | Active | inactive | – | – |

Further lines, with some results ahead:

| GI50 [3] [µM] | SMILES | Activity [1] | Activity [2] | Activity [4] | Activity [5] | Activity [6] |
| --- | --- | --- | --- | --- | --- | --- |
| 16.6 | COc1ccc2[nH]c(CC(C)C)c(/C=C/C(=O)c3ccncc3)c2c1 | inactive | Active | inactive | – | – |
| 3.2 | CCc1[nH]c2ccc(OC)cc2c1/C=C/C(=O)c1ccncc1 | Active | Active | – | Active | Active |
| 15.3 | CCCc1[nH]c2ccc(OC)cc2c1/C=C/C(=O)c1ccncc1 | inactive | Active | inactive | – | – |
